Source: PubChem BioAssay (NCI)
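Compound exposure: 48 hours, 5 concentrations, 96-well plates. Here, GI50 denotes the concentration required for 50% inhibition of growth. TGI: total growth inhibition.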

Legend:
Assay in all cases: NCI tumour cell line growth inhibition, 48 h
ACHN renal = tested on: ACHN renal
COLO 205 colon = tested on: COLO 205 colon
EKVX NSCLC = tested on: EKVX NSCLC
HOP-62 NSCLC = tested on: HOP-62 NSCLC
HS 578T breast = tested on: HS 578T breast
HT29 colon = tested on: HT29 colon
MDA-MB-231 breast = tested on: MDA-MB-231 breast
OVCAR-4 ovarian = tested on: OVCAR-4 ovarian
SF-268 CNS = tested on: SF-268 CNS
SK-MEL-2 melanoma = tested on: SK-MEL-2 melanoma

O=C1c2ccccc2-c2c1c1ccc([N+](=O)[O-])cc1c(=O)n2CCN1CCOCC1
GI50 (ACHN renal): 33.4 µM
TGI (ACHN renal): > 100 µM
GI50 (COLO 205 colon): > 100 µM
TGI (COLO 205 colon): > 100 µM
GI50 (EKVX NSCLC): > 100 µM
TGI (EKVX NSCLC): > 100 µM
GI50 (HOP-62 NSCLC): 52 µM
TGI (HOP-62 NSCLC): > 100 µM
GI50 (HS 578T breast): > 100 µM
TGI (HS 578T breast): > 100 µM
GI50 (HT29 colon): > 100 µM
TGI (HT29 colon): > 100 µM
GI50 (MDA-MB-231 breast): > 100 µM
TGI (MDA-MB-231 breast): > 100 µM
GI50 (OVCAR-4 ovarian): > 100 µM
TGI (OVCAR-4 ovarian): > 100 µM
GI50 (SF-268 CNS): > 100 µM
TGI (SF-268 CNS): > 100 µM
GI50 (SK-MEL-2 melanoma): > 100 µM
TGI (SK-MEL-2 melanoma): > 100 µM

CCOc1cc(CCNC)c2c(ccc3ccc(OC)c(O)c32)c1OC
TGI (ACHN renal): 26.5 µM
TGI (COLO 205 colon): 42 µM
TGI (EKVX NSCLC): 36.3 µM
TGI (HOP-62 NSCLC): 37 µM
TGI (HS 578T breast): 45 µM
TGI (HT29 colon): 30.7 µM
TGI (MDA-MB-231 breast): 28.5 µM
TGI (OVCAR-4 ovarian): 27.2 µM
TGI (SF-268 CNS): 38.3 µM
TGI (SK-MEL-2 melanoma): 34.2 µM

O=C(O)c1ccccc1C(=O)Nc1cc2c(cc1Br)-c1ccccc1C2=O
TGI (ACHN renal): > 100 µM
TGI (COLO 205 colon): > 100 µM
TGI (EKVX NSCLC): > 100 µM
TGI (HOP-62 NSCLC): > 100 µM
TGI (HS 578T breast): > 100 µM
TGI (HT29 colon): > 100 µM
TGI (MDA-MB-231 breast): > 100 µM
TGI (OVCAR-4 ovarian): > 100 µM
TGI (SF-268 CNS): > 100 µM
TGI (SK-MEL-2 melanoma): > 100 µM

COC(=O)C1OC(SCCN)C(O)C(O)C1O (centres undefined)
TGI (ACHN renal): > 100 µM
TGI (COLO 205 colon): > 100 µM
TGI (EKVX NSCLC): > 100 µM
TGI (HOP-62 NSCLC): > 100 µM
TGI (HS 578T breast): > 100 µM
TGI (HT29 colon): > 100 µM
TGI (MDA-MB-231 breast): > 100 µM
TGI (OVCAR-4 ovarian): > 100 µM
TGI (SF-268 CNS): > 100 µM
TGI (SK-MEL-2 melanoma): > 100 µM

Cn1c(=S)c2[nH]c(SCc3cccnc3)nc2n(C)c1=O
TGI (ACHN renal): > 100 µM
TGI (COLO 205 colon): > 100 µM
TGI (EKVX NSCLC): > 100 µM
TGI (HOP-62 NSCLC): > 100 µM
TGI (HS 578T breast): > 100 µM
TGI (HT29 colon): > 100 µM
TGI (MDA-MB-231 breast): > 100 µM
TGI (OVCAR-4 ovarian): > 100 µM
TGI (SF-268 CNS): > 100 µM
TGI (SK-MEL-2 melanoma): > 100 µM

Cn1c(=O)c2[nH]c(CCS)nc2n(C)c1=O
TGI (ACHN renal): > 100 µM
TGI (COLO 205 colon): > 100 µM
TGI (EKVX NSCLC): > 100 µM
TGI (HOP-62 NSCLC): > 100 µM
TGI (HS 578T breast): 99.7 µM
TGI (HT29 colon): > 100 µM
TGI (MDA-MB-231 breast): > 100 µM
TGI (OVCAR-4 ovarian): > 100 µM
TGI (SF-268 CNS): > 100 µM
TGI (SK-MEL-2 melanoma): > 100 µM

COc1ccccc1C(=O)Nc1ccc(Cl)c(C(=O)OC(C)C)c1
TGI (ACHN renal): 28.4 µM
TGI (COLO 205 colon): > 100 µM
TGI (EKVX NSCLC): > 100 µM
TGI (HOP-62 NSCLC): > 100 µM
TGI (HS 578T breast): > 100 µM
TGI (HT29 colon): 88.2 µM
TGI (MDA-MB-231 breast): > 100 µM
TGI (OVCAR-4 ovarian): > 100 µM
TGI (SF-268 CNS): > 95.2 µM
TGI (SK-MEL-2 melanoma): > 76.8 µM

N#CC1=C(N)Oc2c(ccc3cccnc23)C1c1ccccc1 (centres undefined)
TGI (ACHN renal): > 100 µM
TGI (COLO 205 colon): 13.2 µM
TGI (EKVX NSCLC): > 100 µM
TGI (HOP-62 NSCLC): > 22.9 µM
GI50 (HS 578T breast): 1.73 µM
TGI (HS 578T breast): > 100 µM
GI50 (MDA-MB-231 breast): 4.88 µM
TGI (MDA-MB-231 breast): > 100 µM
TGI (OVCAR-4 ovarian): 98.9 µM
TGI (SF-268 CNS): > 100 µM
TGI (SK-MEL-2 melanoma): > 27 µM

O=CCC(O)C(O)C(O)CO (centres undefined)
GI50 (ACHN renal): > 100 µM
TGI (ACHN renal): > 100 µM
GI50 (COLO 205 colon): > 100 µM
TGI (COLO 205 colon): > 100 µM
GI50 (EKVX NSCLC): > 100 µM
TGI (EKVX NSCLC): > 100 µM
GI50 (HOP-62 NSCLC): > 100 µM
TGI (HOP-62 NSCLC): > 100 µM
GI50 (HS 578T breast): > 100 µM
TGI (HS 578T breast): > 100 µM
GI50 (HT29 colon): > 100 µM
TGI (HT29 colon): > 100 µM
GI50 (MDA-MB-231 breast): > 100 µM
TGI (MDA-MB-231 breast): > 100 µM
GI50 (OVCAR-4 ovarian): > 100 µM
TGI (OVCAR-4 ovarian): > 100 µM
GI50 (SF-268 CNS): > 100 µM
TGI (SF-268 CNS): > 100 µM
GI50 (SK-MEL-2 melanoma): > 100 µM
TGI (SK-MEL-2 melanoma): > 100 µM

CSc1ccc(NC(=O)CCl)cc1
TGI (ACHN renal): > 10 µM
TGI (COLO 205 colon): 8.02 µM
TGI (EKVX NSCLC): > 10 µM
TGI (HOP-62 NSCLC): > 10 µM
TGI (HS 578T breast): > 10 µM
TGI (HT29 colon): > 10 µM
TGI (MDA-MB-231 breast): > 10 µM
TGI (OVCAR-4 ovarian): > 10 µM
TGI (SF-268 CNS): > 10 µM
TGI (SK-MEL-2 melanoma): 5.1 µM

COc1ncc(-c2ccc3ncnc(Nc4cccc(Cl)c4)c3c2)cc1NS(C)(=O)=O
GI50 (ACHN renal): 0.485 µM
TGI (ACHN renal): > 100 µM
GI50 (COLO 205 colon): 1.75 µM
TGI (COLO 205 colon): 7.36 µM
GI50 (EKVX NSCLC): 0.579 µM
TGI (EKVX NSCLC): 9.65 µM
GI50 (HOP-62 NSCLC): 1.53 µM
TGI (HOP-62 NSCLC): 42.4 µM
GI50 (HS 578T breast): 0.852 µM
TGI (HS 578T breast): 9.52 µM
GI50 (HT29 colon): 1.07 µM
TGI (HT29 colon): 13.1 µM
GI50 (MDA-MB-231 breast): 1.99 µM
TGI (MDA-MB-231 breast): 19.6 µM
GI50 (OVCAR-4 ovarian): 4.97 µM
TGI (OVCAR-4 ovarian): 64.3 µM
GI50 (SF-268 CNS): 1.99 µM
TGI (SF-268 CNS): 19.2 µM
GI50 (SK-MEL-2 melanoma): 2.27 µM
TGI (SK-MEL-2 melanoma): 8.25 µM

COc1ccc(OC)c(-c2nc3sc(C)cn3c2/C=C2\C(=O)N(C)c3ccccc32)c1
GI50 (ACHN renal): 28.7 µM
TGI (ACHN renal): > 100 µM
GI50 (COLO 205 colon): 25.8 µM
TGI (COLO 205 colon): 68 µM
GI50 (EKVX NSCLC): 32.2 µM
TGI (EKVX NSCLC): > 100 µM
GI50 (HOP-62 NSCLC): 22.5 µM
TGI (HOP-62 NSCLC): 61.4 µM
GI50 (HS 578T breast): 23.6 µM
TGI (HS 578T breast): 70.4 µM
GI50 (HT29 colon): 21.9 µM
TGI (HT29 colon): 70 µM
GI50 (MDA-MB-231 breast): 15.3 µM
TGI (MDA-MB-231 breast): 66.3 µM
GI50 (OVCAR-4 ovarian): 34.1 µM
TGI (OVCAR-4 ovarian): > 100 µM
GI50 (SF-268 CNS): 19.7 µM
TGI (SF-268 CNS): 63.6 µM
GI50 (SK-MEL-2 melanoma): 15.6 µM
TGI (SK-MEL-2 melanoma): 43.6 µM

CC(=O)OCCC/C(=C/c1cc2ccccc2c2ccccc12)[N+](=O)[O-]
GI50 (ACHN renal): 1.64 µM
TGI (ACHN renal): 3 µM
GI50 (COLO 205 colon): 1.67 µM
TGI (COLO 205 colon): 3.03 µM
GI50 (EKVX NSCLC): 1.42 µM
TGI (EKVX NSCLC): 3.67 µM
GI50 (HOP-62 NSCLC): 1.91 µM
TGI (HOP-62 NSCLC): 3.5 µM
GI50 (HS 578T breast): 2.47 µM
TGI (HS 578T breast): > 23.1 µM
GI50 (HT29 colon): 1.97 µM
TGI (HT29 colon): 3.72 µM
GI50 (MDA-MB-231 breast): 1.78 µM
TGI (MDA-MB-231 breast): 4.3 µM
GI50 (OVCAR-4 ovarian): 1.75 µM
TGI (OVCAR-4 ovarian): 3.29 µM
GI50 (SF-268 CNS): 1.47 µM
TGI (SF-268 CNS): 2.89 µM
GI50 (SK-MEL-2 melanoma): 1.54 µM
TGI (SK-MEL-2 melanoma): 2.98 µM

NC(=O)/C=C/c1c[nH]c2nccnc12
TGI (ACHN renal): > 53.6 µM
TGI (COLO 205 colon): 3.27 µM
TGI (EKVX NSCLC): 24.7 µM
TGI (HOP-62 NSCLC): 19.3 µM
TGI (HS 578T breast): 4.6 µM
TGI (HT29 colon): > 25.2 µM
TGI (MDA-MB-231 breast): 31.6 µM
TGI (OVCAR-4 ovarian): 65.4 µM
TGI (SF-268 CNS): > 21.9 µM
TGI (SK-MEL-2 melanoma): 3.95 µM

C=CC(=O)N1CCC(CNc2ncnc(N)c2-c2ccc(Oc3ccccc3)cc2)CC1
GI50 (ACHN renal): 23.4 µM
TGI (ACHN renal): 70.7 µM
GI50 (EKVX NSCLC): 24.1 µM
TGI (EKVX NSCLC): > 100 µM
GI50 (HOP-62 NSCLC): 25.8 µM
TGI (HOP-62 NSCLC): 82.6 µM
GI50 (HS 578T breast): 24 µM
TGI (HS 578T breast): 95.2 µM
GI50 (HT29 colon): 30.7 µM
TGI (HT29 colon): > 100 µM
GI50 (MDA-MB-231 breast): 25.5 µM
TGI (MDA-MB-231 breast): 89 µM
GI50 (OVCAR-4 ovarian): 24.1 µM
TGI (OVCAR-4 ovarian): > 100 µM
GI50 (SF-268 CNS): 26.6 µM
TGI (SF-268 CNS): > 100 µM
GI50 (SK-MEL-2 melanoma): 19.3 µM
TGI (SK-MEL-2 melanoma): 42 µM

CCOC(=O)CC1C(CNC(=O)NC)OC(n2cnc3c(NC(=O)Nc4ccccc4)ncnc32)C1O[Si](C)(C)C(C)(C)C (centres undefined)
GI50 (ACHN renal): 8.55 µM
TGI (ACHN renal): > 100 µM
GI50 (COLO 205 colon): 3.84 µM
TGI (COLO 205 colon): > 100 µM
GI50 (EKVX NSCLC): 17.7 µM
TGI (EKVX NSCLC): > 100 µM
GI50 (HOP-62 NSCLC): 8.96 µM
TGI (HOP-62 NSCLC): 26.4 µM
GI50 (HS 578T breast): 3.6 µM
TGI (HS 578T breast): 53.6 µM
GI50 (HT29 colon): 4.2 µM
TGI (HT29 colon): > 100 µM
GI50 (MDA-MB-231 breast): 3.96 µM
TGI (MDA-MB-231 breast): 41.3 µM
GI50 (OVCAR-4 ovarian): 12.3 µM
TGI (OVCAR-4 ovarian): > 100 µM
GI50 (SF-268 CNS): 6.53 µM
TGI (SF-268 CNS): 27 µM
GI50 (SK-MEL-2 melanoma): 5.42 µM
TGI (SK-MEL-2 melanoma): 33.1 µM
